The record followed here is ChEMBL document CHEMBL1140657, “SAR of a novel 'Anthranilamide Like' series of VEGFR-2, multi protein kinase inhibitors for the treatment of cancer” (Bioorg Med Chem Lett, 2007).

Values joined by “and” are separate entries in the source; they are usually repeats but may differ in a detail not shown here. Equal entries are not always repeated.

Data set [1] addresses Mast/stem cell growth factor receptor Kit (Homo sapiens, UniProt P10721). Description: Inhibition of human recombinant cKit by FRET assay.
A short description of data set [2]: Cmax in ICR mouse at 15 mg/kg. The class given is ADME, organism-based. Also on record: dose 15 mg/kg. The following applies: in vivo.
Data set [3] is described as follows: AUC (1 to 5 hrs) in ICR mouse. The class given is ADME, organism-based. Also on record: time 1-5 hr. The note with it: plasma.
Data set [4] has as its target Vascular endothelial growth factor receptor 2 (Homo sapiens, UniProt P35968). Description: Inhibition of VEGFR2.
Data set [5] has as its target Serine/threonine-protein kinase B-raf (Homo sapiens, UniProt P15056). Description: Inhibition of b-Raf.
Data set [6] can be described thus: AUC in ICR mouse at 25 mg/kg, po. Format: ADME, organism-based. Also on record: dose 25 mg/kg, route oral. The following applies: plasma.
Another data set deals with COLO 205. Description: Inhibition of tumor growth in human Colo205 cells xenografted in athymic mouse at 50 mg/kg, po once daily after 9 days. The class given is functional. The following applies: COLO 205, 216 h. On the technique in general: In xenograft studies the graft and the host belong to different species.
The subject of the next data set is MDA-MB-231. Description: Inhibition of tumor growth in human MDA-MB-231 cells xenografted in athymic mouse at 50 mg/kg, po once daily after 9 days. The note with it: MDA-MB-231, 216 h. The class given is functional.
Data set [7] in a line: Volume of distribution at steady state in iv dosed ICR mouse. Format: ADME, organism-based. The note with it: in vivo, read-out: Vdss.
For another data set, the system named is NCI-H460. Description: Inhibition of tumor growth in human NCI-H460 NSCLC cells xenografted in athymic mouse at 50 mg/kg, po once daily after 9 days. The following applies: NCI-H460, 216 h. Format: functional.
A short description of data set [8]: Cmax in ICR mouse at 25 mg/kg. The class given is ADME, organism-based. Also on record: dose 25 mg/kg. The note with it: in vivo.
Data set [9] in a line: AUC (0 to 5 hrs) in ICR mouse at 25 mg/kg, po. The note with it: plasma. The arrangement: time < 4 hr, dose 25 mg/kg, route oral. Format: ADME, organism-based.

A word on the IC50: it is the point on the concentration scale where inhibition reaches its midpoint. For orientation: Cmax means the maximum level reached in the sampled fluid or tissue. As a reminder, the AUC(0-t) is the area under the concentration-time curve up to a stated or last time point. One may read the AUC as the area under the concentration-time curve, a measure of exposure. Read a high AUC as high exposure. For orientation: inhibition in vivo means the change of the read-out against control, counted positive when it falls.

Vascular endothelial growth factor receptor 2, sequence (P35968 whole entry): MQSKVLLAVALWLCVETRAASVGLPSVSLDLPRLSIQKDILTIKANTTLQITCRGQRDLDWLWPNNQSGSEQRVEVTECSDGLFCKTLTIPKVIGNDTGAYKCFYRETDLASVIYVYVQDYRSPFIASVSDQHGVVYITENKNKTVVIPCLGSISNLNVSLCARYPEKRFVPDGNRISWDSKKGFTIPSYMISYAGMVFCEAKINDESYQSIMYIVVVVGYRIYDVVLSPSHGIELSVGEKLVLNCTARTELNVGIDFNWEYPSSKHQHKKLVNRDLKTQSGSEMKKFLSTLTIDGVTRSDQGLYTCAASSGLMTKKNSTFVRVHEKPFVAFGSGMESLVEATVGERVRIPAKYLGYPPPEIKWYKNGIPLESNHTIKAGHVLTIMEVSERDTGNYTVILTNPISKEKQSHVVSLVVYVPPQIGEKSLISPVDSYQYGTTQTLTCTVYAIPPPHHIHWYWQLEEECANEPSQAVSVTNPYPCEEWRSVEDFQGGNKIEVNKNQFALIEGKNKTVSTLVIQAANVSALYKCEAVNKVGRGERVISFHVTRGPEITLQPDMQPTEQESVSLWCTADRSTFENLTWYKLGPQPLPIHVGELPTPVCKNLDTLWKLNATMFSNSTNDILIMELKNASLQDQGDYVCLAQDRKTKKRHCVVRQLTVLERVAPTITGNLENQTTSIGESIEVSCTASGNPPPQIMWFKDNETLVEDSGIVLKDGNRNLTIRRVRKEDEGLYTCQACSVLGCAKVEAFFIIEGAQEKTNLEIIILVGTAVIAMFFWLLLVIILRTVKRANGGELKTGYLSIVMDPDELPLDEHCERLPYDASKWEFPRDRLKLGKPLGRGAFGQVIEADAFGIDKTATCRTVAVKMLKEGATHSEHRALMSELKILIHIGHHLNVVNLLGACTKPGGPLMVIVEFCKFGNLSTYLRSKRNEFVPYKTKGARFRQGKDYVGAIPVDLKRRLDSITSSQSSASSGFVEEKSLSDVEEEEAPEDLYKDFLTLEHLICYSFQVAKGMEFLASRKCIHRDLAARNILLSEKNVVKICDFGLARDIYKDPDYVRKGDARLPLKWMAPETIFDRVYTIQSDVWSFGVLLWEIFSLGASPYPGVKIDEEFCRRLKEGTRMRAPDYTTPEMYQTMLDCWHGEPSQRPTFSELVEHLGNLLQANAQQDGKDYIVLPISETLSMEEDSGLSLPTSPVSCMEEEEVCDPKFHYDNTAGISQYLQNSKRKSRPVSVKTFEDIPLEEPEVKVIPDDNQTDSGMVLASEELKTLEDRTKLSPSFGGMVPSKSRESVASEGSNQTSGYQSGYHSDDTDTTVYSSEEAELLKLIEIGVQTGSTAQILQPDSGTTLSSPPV
Serine/threonine-protein kinase B-raf, sequence (P15056 whole entry): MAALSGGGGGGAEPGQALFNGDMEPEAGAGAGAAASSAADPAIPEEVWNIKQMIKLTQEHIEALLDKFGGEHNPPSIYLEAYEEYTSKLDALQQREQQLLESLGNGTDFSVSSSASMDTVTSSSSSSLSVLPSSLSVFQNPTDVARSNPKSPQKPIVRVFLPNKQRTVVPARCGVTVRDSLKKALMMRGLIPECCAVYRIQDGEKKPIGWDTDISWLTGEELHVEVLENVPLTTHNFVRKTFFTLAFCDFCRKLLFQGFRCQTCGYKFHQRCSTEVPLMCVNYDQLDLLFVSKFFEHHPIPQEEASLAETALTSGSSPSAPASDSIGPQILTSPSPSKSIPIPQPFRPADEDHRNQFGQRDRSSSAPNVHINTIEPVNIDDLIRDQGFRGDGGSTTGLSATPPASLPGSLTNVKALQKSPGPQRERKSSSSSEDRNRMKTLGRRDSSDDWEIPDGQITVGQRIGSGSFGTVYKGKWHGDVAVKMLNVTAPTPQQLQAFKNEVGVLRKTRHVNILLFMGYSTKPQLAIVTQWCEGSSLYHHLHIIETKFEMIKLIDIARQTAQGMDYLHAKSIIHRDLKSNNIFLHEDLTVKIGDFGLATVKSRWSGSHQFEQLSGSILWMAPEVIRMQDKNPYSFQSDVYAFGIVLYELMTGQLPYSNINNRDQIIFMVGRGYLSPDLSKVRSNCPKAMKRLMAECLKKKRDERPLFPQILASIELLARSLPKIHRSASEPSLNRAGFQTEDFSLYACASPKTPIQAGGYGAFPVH
Mast/stem cell growth factor receptor Kit, sequence (P10721 whole entry): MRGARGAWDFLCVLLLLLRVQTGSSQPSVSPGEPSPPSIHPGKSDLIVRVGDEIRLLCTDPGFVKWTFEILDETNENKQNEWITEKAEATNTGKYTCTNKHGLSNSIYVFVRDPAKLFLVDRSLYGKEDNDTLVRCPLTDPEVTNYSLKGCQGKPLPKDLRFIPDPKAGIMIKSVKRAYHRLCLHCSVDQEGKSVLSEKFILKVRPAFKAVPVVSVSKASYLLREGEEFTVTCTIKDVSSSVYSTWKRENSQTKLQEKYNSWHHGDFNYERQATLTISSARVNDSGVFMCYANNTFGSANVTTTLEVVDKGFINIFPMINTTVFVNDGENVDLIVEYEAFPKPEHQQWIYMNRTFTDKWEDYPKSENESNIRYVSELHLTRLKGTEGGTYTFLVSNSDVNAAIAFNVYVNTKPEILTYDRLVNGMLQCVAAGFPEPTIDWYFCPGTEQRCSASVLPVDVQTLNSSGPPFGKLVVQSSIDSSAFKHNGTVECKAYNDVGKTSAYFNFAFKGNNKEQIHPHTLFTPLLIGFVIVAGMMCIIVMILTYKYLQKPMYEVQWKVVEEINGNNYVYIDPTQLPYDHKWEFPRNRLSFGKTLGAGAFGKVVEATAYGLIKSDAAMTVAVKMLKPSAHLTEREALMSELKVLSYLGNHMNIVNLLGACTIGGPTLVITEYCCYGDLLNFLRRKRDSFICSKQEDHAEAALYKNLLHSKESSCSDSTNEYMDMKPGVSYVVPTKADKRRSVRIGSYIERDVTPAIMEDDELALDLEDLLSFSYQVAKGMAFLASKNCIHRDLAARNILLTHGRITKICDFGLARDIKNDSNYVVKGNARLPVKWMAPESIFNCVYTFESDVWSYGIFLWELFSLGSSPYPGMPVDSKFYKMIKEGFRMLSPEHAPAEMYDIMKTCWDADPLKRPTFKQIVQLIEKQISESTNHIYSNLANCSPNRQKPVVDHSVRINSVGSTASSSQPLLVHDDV

For `CNC(=O)Nc1ccc(CNc2c(C(=O)Nc3ccc4c(c3)OC(F)(F)C(F)(F)O4)cnn2C)cn1`, the IC50 in [1] stood at 12 nM; in data set [4] it was 43 nM. The compound also came in with a Cmax in data set [2] of 6 µM. For the same compound, the AUC(0-t) in [3] is 19 µM·h.

With `CNC(=O)c1cc(CNc2ccccc2C(=O)Nc2ccc3c(c2)OC(F)(F)O3)ccn1`, the IC50 in [1] was 5 nM; in data set [5], 45 nM. In addition, in data set [6], the AUC worked out at 40 µM·h.

As to `O=C(NCc1ccccc1)Nc1cc(CNc2ccccc2C(=O)Nc2ccc3c(c2)OC(F)(F)O3)ccn1`, the IC50 in [1] was 48 nM; in [5] it was 232 nM.

For the compound `CS(=O)(=O)Nc1cc(CNc2ccccc2C(=O)Nc2ccc3c(c2)OC(F)(F)O3)ccn1`, the concentration for half-maximal inhibition (IC50) in data set [1] was determined as 25 nM; in data set [5], 594 nM.

On to `CNC(=O)Nc1ccc(CNc2c(C(=O)Nc3ccc(SC(F)(F)F)cc3)cnn2C)cn1`, for which the IC50 was determined as 17 nM in [1], 154 nM in data set [5] and 62 nM in data set [4]. Moreover, the concentration in [2] peaked (Cmax) at 3.6 µM. In addition, the AUC(0-t) in data set [3] came to 11 µM·h.

Consider `O=C(Nc1ccc2c(c1)OC(F)(F)O2)c1ccccc1NCc1ccnc(NCCc2cnc[nH]2)c1`, for which the IC50 in [1] was found to be 23 nM; in [5], 146 nM.

On to `O=C(Nc1ccc2c(c1)OC(F)(F)O2)c1ccccc1NCc1ccnc(C2=NCCN2)c1`, for which the IC50 in data set [1] is 72 nM; in [5], 153 nM.

Consider `N#Cc1cc(CNc2ccccc2C(=O)Nc2ccc3c(c2)OC(F)(F)O3)ccn1`, for which the IC50 was 37 nM in data set [1] and 110 nM in [5].

In the case of `CCN(CC)CCNC(=O)c1cc(CNc2ccccc2C(=O)Nc2ccc3c(c2)OC(F)(F)O3)ccn1`, the IC50 is 58 nM in [1] and 138 nM in data set [5].

As to `COCCCNc1cc(CNc2ccccc2C(=O)Nc2ccc3c(c2)OC(F)(F)O3)ccn1`, the IC50 was determined as 12 nM in [1] and 156 nM in data set [5].

Consider `O=C(Nc1ccc2c(c1)OC(F)(F)O2)c1ccccc1NCc1ccnc(NCCCn2ccnc2)c1`, for which the IC50 in [1] stood at 20 nM; in data set [5] it was 101 nM.

`COCCNC(=O)c1cc(CNc2ccccc2C(=O)Nc2ccc3c(c2)OC(F)(F)O3)ccn1`: the IC50 in [1] was 38 nM; in data set [5], 497 nM.

For `CNc1nccc(CNc2ccccc2C(=O)Nc2ccc3c(c2)OC(F)(F)O3)n1`, the IC50 in [1] worked out at 3 nM; in data set [5] it was 26 nM.

Take `NC(=S)c1cc(CNc2ccccc2C(=O)Nc2ccc3c(c2)OC(F)(F)O3)ccn1`: the results for the IC50 in data set [1] and in data set [5] were 27 nM and 100 nM, respectively.

For `CN(C)c1nccc(CNc2ccccc2C(=O)Nc2ccc3c(c2)OC(F)(F)O3)n1`, the figures for the IC50 in [1] and in data set [5] were 50 nM and 349 nM, respectively.

Turning to `O=C(NC1CC1)c1cc(CNc2ccccc2C(=O)Nc2ccc3c(c2)OC(F)(F)O3)ccn1`, the results for the IC50 in data set [1] and in data set [5] were 16 nM and 192 nM, respectively.

Regarding `CNC(=O)Nc1ccc(CNc2ncsc2C(=O)Nc2ccc3c(c2)OC(F)(F)O3)cn1`, the IC50 in data set [1] is 5 nM; in data set [4], 3 nM. For the same compound, the figures for the inhibition in vivo at 50 mg/kg with COLO 205, in the data set with MDA-MB-231 and with NCI-H460 were 84%, 90% and 70%, respectively. In addition, the AUC(0-t) in data set [3] stood at 538 µM·h. Besides, the Vd in [7] came out at 0.151 L/kg. The Cmax in data set [8] was determined as 124 µM.

Take `CCNC(=O)Nc1ccc(CNc2ncsc2C(=O)Nc2ccc3c(c2)OC(F)(F)O3)cn1`: the IC50 in data set [1] amounted to 4 nM; in data set [4], 7 nM. In addition, the inhibition in vivo at 50 mg/kg stood at 86% with COLO 205, 92% in the data set on MDA-MB-231 and 79% in the data set on NCI-H460. Also, the AUC(0-t) in [3] amounted to 255 µM·h. Moreover, the Vd in data set [7] was 0.24 L/kg. In [8], this compound displayed a Cmax of 64 µM.

For `CNc1cc(CNc2ccccc2C(=O)Nc2ccc3c(c2)OC(F)(F)O3)ccn1`, the IC50 in data set [1] turned out to be 3 nM; in [5] it was 100 nM.

For `CCNC(=O)c1cc(CNc2ccccc2C(=O)Nc2ccc3c(c2)OC(F)(F)O3)ccn1`, the IC50 in data set [1] was found to be 25 nM; in data set [5], 333 nM.

Regarding `O=C(Nc1ccc2c(c1)OC(F)(F)O2)c1ccccc1NCc1ccnc(NCCOCCO)c1`, the IC50 in data set [1] worked out at 4 nM; in data set [5], 165 nM.

As for `O=C(NCCCN1CCOCC1)c1cc(CNc2ccccc2C(=O)Nc2ccc3c(c2)OC(F)(F)O3)ccn1`, the IC50 in data set [1] was 45 nM; in data set [5], 6830 nM.

With `CCNC(=O)Nc1cc(CNc2ccccc2C(=O)Nc2ccc3c(c2)OC(F)(F)O3)ccn1`, the IC50 in [1] stood at 7 nM; in data set [5], 90 nM. In addition, the AUC(0-t) at 4 h in [9] was above 400 µM·h.

As to `CS(=O)(=O)CCNC(=O)c1cc(CNc2ccccc2C(=O)Nc2ccc3c(c2)OC(F)(F)O3)ccn1`, the figures for the IC50 in [1] and in data set [5] were 17 nM and 221 nM, respectively.

Consider `O=C(Nc1ccc2c(c1)OC(F)(F)O2)c1ccccc1NCc1ccnc(NCCO)c1`, for which the IC50 was found to be 8 nM in data set [1] and 112 nM in [5].

As to `CC(=O)Nc1cc(CNc2ccccc2C(=O)Nc2ccc3c(c2)OC(F)(F)O3)ccn1`, the results for the half-maximal inhibitory concentration (IC50) in data set [1] and in [5] were 1 nM and 5 nM, respectively.

Take `CNC(=O)c1cc(CNc2c(C(=O)Nc3ccc4c(c3)OC(F)(F)O4)cnn2C)ccn1`: the IC50 in [1] is 11 nM; in data set [5], 199 nM.

Regarding `CCN(CC)CCCNC(=O)c1cc(CNc2ccccc2C(=O)Nc2ccc3c(c2)OC(F)(F)O3)ccn1`, the figures for the IC50 in data set [1] and in data set [5] were 42 nM and 175 nM, respectively.

Take `COCCNc1cc(CNc2ccccc2C(=O)Nc2ccc3c(c2)OC(F)(F)O3)ccn1`: the values for the IC50 in [1] and in [5] were 13 nM and 104 nM, respectively.

Turning to `O=C(Nc1ccc2c(c1)CCC2)Nc1cc(CNc2ccccc2C(=O)Nc2ccc3c(c2)OC(F)(F)O3)ccn1`, the IC50 in [1] turned out to be 240 nM; in [5], 64 nM.

For `COCCCNC(=O)c1cc(CNc2ccccc2C(=O)Nc2ccc3c(c2)OC(F)(F)O3)ccn1`, the IC50 in data set [1] was determined as 19 nM; in data set [5] it was 1030 nM.

As to `O=C(Nc1ccc2c(c1)OC(F)(F)C(F)(F)O2)c1ccccc1NCc1ccncc1`, the IC50 was found to be 19 nM in data set [1] and 40 nM in data set [5]. Besides, the AUC in [6] worked out at 6 µM·h.

Turning to `O=C(Nc1ccc2c(c1)OC(F)(F)C(F)(F)O2)c1ncsc1NCc1ccncc1`, the IC50 in data set [1] was 95 nM; in [5] it was 2560 nM.

Regarding `CNC(=O)c1cc(CNc2ncsc2C(=O)Nc2ccc3c(c2)OC(F)(F)O3)ccn1`, the IC50 is 25 nM in [1] and 1240 nM in data set [5].

Turning to `O=C(NCCO)c1cc(CNc2ccccc2C(=O)Nc2ccc3c(c2)OC(F)(F)O3)ccn1`, the results for the IC50 in data set [1] and in data set [5] were 18 nM and 397 nM, respectively.

With `O=C(Nc1ccc2c(c1)OC(F)(F)O2)c1ccccc1NCc1ccnc(NCCCO)c1`, the IC50 was 9 nM in [1] and 142 nM in [5].

Take `CNC(=O)Nc1cc(CNc2ccccc2C(=O)Nc2ccc3c(c2)OC(F)(F)O3)ccn1`: the values for the IC50 in data set [1] and in data set [5] were 5 nM and 24 nM, respectively.

`CNC(=O)c1cc(CNc2ccsc2C(=O)Nc2ccc3c(c2)OC(F)(F)O3)ccn1`: the IC50 in data set [1] stood at 3 nM; in [5], 61 nM.

For `NC(=O)c1cc(CNc2ccccc2C(=O)Nc2ccc3c(c2)OC(F)(F)O3)ccn1`, the IC50 was found to be 2 nM in [1] and 34 nM in data set [5].

With `Nc1cc(CNc2ccccc2C(=O)Nc2ccc3c(c2)OC(F)(F)O3)ccn1`, the IC50 in [1] is 4 nM and 1 nM; in [5] it was 634 nM and 274 nM.

Turning to `CNC(=O)c1cc(CNc2ncsc2C(=O)Nc2ccc3c(c2)OC(F)(F)C(F)(F)O3)ccn1`, the IC50 in data set [1] is 12 nM; in data set [5], 192 nM.

Regarding `O=C(Nc1ccccc1)Nc1cc(CNc2ccccc2C(=O)Nc2ccc3c(c2)OC(F)(F)O3)ccn1`, the values for the IC50 in data set [1] and in data set [5] were 87 nM and 39 nM, respectively.
